Patent publication US20230111066A1, “PIGMENTED SPOT FORMATION INHIBITOR, INCREASED MELANOSOME PHAGOCYTOSIS INHIBITOR, AND EPIDERMAL DIFFERENTIATION POTENCY IMPROVER” (SSP CO., LTD., priority 2021, published 2023)

How the values were obtained:
[1] = tested on: normal human epidermal keratinocytes (NHEKs); assay: Fluorescent bead phagocytosis enhanced by BSO treatment; type: cell-based; settings: 50 μM BSO, pyridoxine 0.25 mM, 0.5 mM, or 1 mM, FIG. 2
Protocol: Test Example 2: Enhancement of Fluorescent Bead Phagocytosis by BSO Treatment and Enhanced Phagocytosis-Inhibiting Effect by VB6 A culture medium (HuMedia-KG2) was added to a 96-well plate at 0.1 mL/well, and normal human epidermal keratinocytes (NHEKs) were seeded at a density of 2.5×10^4 cells/well, followed by incubation for 24 hours. These cells were divided into first to fourth groups. In the first group (vitamin B6+BSO group), treatment with 50 μM of buthionine sulfoximine (BSO: manufactured by Sigma-Aldrich Co. LLC) was performed for 24 hours, and the medium was then replaced by a pyridoxine-containing culture medium (pyridoxine: 0.25 mM, 0.5 mM, or 1 mM), followed by culturing for 24 hours. In the second group (vitamin B6 group), the medium was replaced by a pyridoxine-containing culture medium (pyridoxine: 0.25 mM, 0.5 mM, or 1 mM), followed by culturing for 24 hours. In the third group (BSO group), treatment with 50 μM of buthionine sulfoximine (BSO) was performed for 24 hours, followed by culturing in a KG2 culture medium for 24 hours. […] Subsequently, the NHEKs of each group were allowed to incorporate fluorescent beads (manufactured by Thermo Fisher Scientific Inc.) for 4 hours, and the uptake amount of the fluorescent beads per unit protein was then measured with a microplate reader (manufactured by Tecan Group Ltd.).

[2] = tested on: normal human epidermal keratinocytes (NHEKs); assay: Fluorescent bead (pseudo-melanosome) phagocytosis enhanced by UVB irradiation; type: cell-based
Protocol: Test Example 1: Enhancement of Fluorescent Bead Phagocytosis by UVB Irradiation and Enhanced Phagocytosis-Inhibiting Effect by VB6 A culture medium (HuMedia-KG2: manufactured by Kurabo Industries Ltd.) was added to a 96-well plate at 0.1 mL/well, and normal human epidermal keratinocytes (NHEKs) were seeded at a density of 2.5×10^4 cells/well, followed by incubation for 24 hours. These cells were divided into first to fourth groups. In the first group (vitamin B6+UVB group), the medium was replaced by a pyridoxine-containing culture medium (pyridoxine: 1 mM), followed by culturing for 24 hours, and irradiation with 20 mJ/cm^2 of UVB using a UVB broadband lamp manufactured by Koninklijke Philips N.V. was performed, followed by culturing for 24 hours. In the second group (vitamin B6 group), the medium was replaced by a pyridoxine-containing culture medium (pyridoxine: 1 mM), followed by culturing for 24 hours. […] Subsequently, the NHEKs of each group were allowed to incorporate fluorescent beads (manufactured by Thermo Fisher Scientific Inc.) as pseudo-melanosomes for 4 hours, and the uptake amount of the fluorescent beads per unit protein was then measured with a microplate reader (manufactured by Tecan Group Ltd.).

[3] = tested on: gene expression levels of keratin-10, involucrin, and loricrin; assay: Degradation of epidermal differentiation potency by fluorescent bead phagocytosis, real-time PCR; type: cell-based, human
Protocol: Test Example 3: Effect of Improving Degradation of Epidermal Differentiation Potency by Fluorescent Bead Phagocytosis A culture medium (HuMedia-KG2) was added to a 96-well plate at 0.1 mL/well, and normal human epidermal keratinocytes (NHEKs) were seeded at a density of 2.5×10^4 cells/well, followed by incubation for 24 hours. These cells were divided into first to third groups. In the first group (vitamin B6+bead group), the medium was replaced by a pyridoxine-containing culture medium (pyridoxine: 1 mM), followed by culturing for 24 hours. The NHEKs were allowed to incorporate fluorescent beads (manufactured by Thermo Fisher Scientific Inc.) as pseudo-melanosomes for 4 hours, followed by further culturing in a fresh culture medium (HuMedia-KG2) for 20 hours. In the second group (bead group), after culturing for 24 hours, the NHEKs were allowed to incorporate fluorescent beads (manufactured by Thermo Fisher Scientific Inc.) as pseudo-melanosomes for 4 hours, followed by further culturing in a fresh culture medium (HuMedia-KG2) for 20 hours. In the third group (control group), the NHEKs were directly cultured for 48 hours. Subsequently, total RNA was extracted from the NHEKs of each group, and cDNA was produced by reverse transcription. Real-time PCR was performed using this cDNA as a template to detect gene expression levels of keratin-10, involucrin, and loricrin.

Row | Compound | effect on increase in melanosome phagocytosis (uptake amount of fluorescent beads per unit protein) [1] | effect on increase in melanosome phagocytosis (uptake amount of fluorescent beads per unit protein) ([2]; NHEKs, pyridoxine 1 mM, 20 mJ/cm^2 UVB, FIG. 1) | effect on epidermal differentiation potency (gene expression of keratin-10, involucrin, loricrin) ([3]; NHEKs, pyridoxine 1 mM, fluorescent beads 4 hours, FIG. 3) | effect on increase in melanosome phagocytosis, summary statement on the Examples ([2]; general statement covering Test Examples 1 and 2) | effect on epidermal differentiation potency, summary statement on the Examples ([3]; general statement covering Test Example 3)
1 | Cc1ncc(CO)c(CO)c1O [pyridoxine] | inhibiting an increase in melanosome phagocytosis | inhibiting an increase in melanosome phagocytosis | improving epidermal differentiation potency | – | –
2 | vitamin B6 | – | – | – | excellent effects of inhibiting an increase in melanosome phagocytosis | improving epidermal differentiation potency
